Measured values taken from the OPERA property sets (Mansouri et al. 2018).
In brackets after ≈: the same amount, converted by molar mass.

conditions: not given

**Q.** With `O=C1NCCC2CNC(=O)C12` (configuration not stated) as the compound, how does the logP read?
**A.** -1.95

**Q.** Which logP does the source give for `COc1ccc(N)c(S(=O)(=O)O)c1` here?
**A.** -3.49

**Q.** Which logP does the source give for `COc1ccccc1C=O` here?
**A.** 1.72

**Q.** For `CCCCNCc1ccccc1`, which logP is on record?
**A.** 2.59

**Q.** For `CCOCCOCCOCC`, which logP is on record?
**A.** 0.39

**Q.** With `Clc1ccc(Nc2cc3nc4ccccc4n(-c4ccc(Cl)cc4)c-3cc2=NCC2CCNCC2)cc1` as the compound, how does the logP read?
**A.** 6.44

**Q.** Which logP does the source give for `CSc1nc2ccccc2s1` here?
**A.** 3.15

**Q.** Which logP does the source give for `ClC1=C(Cl)C2(Cl)C(CBr)CC1(Cl)C2(Cl)Cl` (configuration not stated) here?
**A.** 5.9

**Q.** With `CC(=O)N[C@@H](Cc1ccccc1)C(=O)O` as the compound, how does the logP read?
**A.** 0.93

**Q.** Which logP does the source give for `O=C1C2=C(CCCC2)C(=O)N1c1ccc(Cl)cc1` here?
**A.** 3.32

**Q.** With `Nc1ncc2ncn(COCCO)c2n1` as the compound, how does the logP read?
**A.** -1.08

**Q.** With `CCN1CCC[C@H]1CNC(=O)c1c(OC)ccc(Br)c1OC` as the compound, how does the logP read?
**A.** 2.1

**Q.** For `c1ccc2c(c1)[nH]c1cnccc12`, which logP is on record?
**A.** 3.17

**Q.** Which logP does the source give for `CC(=O)OCN1Cc2ccccc2C1=O` here?
**A.** 0.99

**Q.** Which logP does the source give for `CC1=NS(=O)(=O)c2cnccc2N1` here?
**A.** -0.41

**Q.** With `N#CCCCCCCC#N` as the compound, how does the logP read?
**A.** 0.59

**Q.** With `Cc1ccc(Cl)cc1[N+](=O)[O-]` as the compound, how does the logP read?
**A.** 3.05

**Q.** With `Fc1ccc(Cn2cncn2)cc1` as the compound, how does the logP read?
**A.** 1.1

**Q.** With `Cc1ccc(C(C)C)c(Cl)c1Cl` as the compound, how does the logP read?
**A.** 5.5

**Q.** With `Cc1ccc2cc3ccccc3cc2c1` as the compound, how does the logP read?
**A.** 5

**Q.** For `O=P(N1CCCC1)(N1CCCC1)N1CCCC1`, which logP is on record?
**A.** 1.67

**Q.** Which logP does the source give for `CCC(=O)OC1(c2ccccc2)CCN(C)CC1CC` (configuration not stated) here?
**A.** 3.61

**Q.** For `C=CCCCCCCCC`, which logP is on record?
**A.** 5.7

**Q.** Which solubility does the source give for `COCCCNc1nc(NCCCOC)nc(SC)n1` here?
**A.** 0.332 mM (≈ 100 µg/mL)

**Q.** For `CCOCCOCCO`, which logP is on record?
**A.** -0.54

**Q.** With `ClCCCBr` as the compound, how does the logP read?
**A.** 2.18

**Q.** Which logP does the source give for `CC(C)c1ccc2c(c1)CC[C@H]1[C@](C)(C(=O)O)CCC[C@]21C` here?
**A.** 4.8

**Q.** And the solubility?
**A.** 0.022 mM (≈ 6.6 µg/mL)

**Q.** For `Cc1cccc(OCCN(C)C)c1`, which logP is on record?
**A.** 2.05

**Q.** With `CCCCC(OC(Cc1ccccc1)C(=O)N1CCC(OCOC)CC1)C(=O)NC(CC1CCCCC1)C(O)CC(C(=O)NCCNc1noc(N)n1)C(C)C` (configuration not stated) as the compound, how does the logP read?
**A.** 4.5

**Q.** Which logP does the source give for `CCCCN(C)N=O` here?
**A.** 1.08

**Q.** Which logP does the source give for `Cc1cn(C2OC(CO)CC2F)c(=O)[nH]c1=O` (configuration not stated) here?
**A.** -0.44

same assay, conditions: 20 °C

**Q.** With `Nc1ccc(Cl)c(Cl)c1` as the compound, how does the solubility read?
**A.** 0.568 mM (≈ 92 µg/mL)

**Q.** Which solubility does the source give for `COc1c(Cl)cc(Cl)cc1Cl` here?
**A.** 0.0473 mM (≈ 10 µg/mL)

**Q.** Which solubility does the source give for `O=C(O)Cc1ccccc1` here?
**A.** 122 mM (≈ 16600 µg/mL)

**Q.** Which solubility does the source give for `C=C(C)[C@H]1Cc2c(ccc3c2O[C@@H]2COc4cc(OC)c(OC)cc4[C@@H]2C3=O)O1` here?
**A.** 0.000507 mM (≈ 0.2 µg/mL)

**Q.** For `C=COCC(C)C`, which solubility is on record?
**A.** 30 mM (≈ 3000 µg/mL)

**Q.** For `CN(C)c1ccncc1`, which solubility is on record?
**A.** 622 mM (≈ 76000 µg/mL)

**Q.** With `CC(CO)(CO)[N+](=O)[O-]` as the compound, how does the solubility read?
**A.** 5920 mM (≈ 800000 µg/mL)

**Q.** With `c1ccc(C2CO2)cc1` (configuration not stated) as the compound, how does the solubility read?
**A.** 25 mM (≈ 3000 µg/mL)

**Q.** For `ClCCOCCCl`, which solubility is on record?
**A.** 120 mM (≈ 17200 µg/mL)

same assay, conditions: 23.0 °C

**Q.** For `CCOC(=O)C(C)O` (configuration not stated), which log10 OH rate constant (cm³/molecule/s) is on record?
**A.** -11.4

**Q.** Which log10 OH rate constant (cm³/molecule/s) does the source give for `CC/C=C\CCO` here?
**A.** -9.96

**Q.** Which log10 OH rate constant (cm³/molecule/s) does the source give for `O=C1C=CC(=O)O1` here?
**A.** -11.8

**Q.** Which log10 OH rate constant (cm³/molecule/s) does the source give for `CCCCOCC(C)O` (configuration not stated) here?
**A.** -10.4

**Q.** For `CCOCCOCCO`, which log10 OH rate constant (cm³/molecule/s) is on record?
**A.** -10.2

same assay, conditions: 24 °C

**Q.** With `CCCCN(CC)N=O` as the compound, how does the solubility read?
**A.** 92.2 mM (≈ 12000 µg/mL)

**Q.** For `COc1cc(C=O)cc(Cl)c1O`, which solubility is on record?
**A.** 1.33 mM (≈ 249 µg/mL)

**Q.** For `CCCCN(C)N=O`, which solubility is on record?
**A.** 200 mM (≈ 23200 µg/mL)

same assay, conditions: 24.0 °C

**Q.** With `CCOCCC(=O)OCC` as the compound, how does the log10 OH rate constant (cm³/molecule/s) read?
**A.** -10.6

same assay, conditions: 25 °C

**Q.** With `CCCCC(CC)COP(=O)(Oc1ccccc1)Oc1ccccc1` (configuration not stated) as the compound, how does the solubility read?
**A.** 0.00524 mM (≈ 1.9 µg/mL)

**Q.** For `CCCCO[N+](=O)[O-]`, which solubility is on record?
**A.** 9.4 mM (≈ 1120 µg/mL)

**Q.** For `CCCCOC(=O)c1ccc(C(=O)OCCCC)cc1`, which solubility is on record?
**A.** 0.00341 mM (≈ 0.95 µg/mL)

**Q.** For `C=C(C)C(=O)OC(C)(C)C`, which solubility is on record?
**A.** 7.03 mM (≈ 1000 µg/mL)

**Q.** Which solubility does the source give for `CC(C)(C)Br` here?
**A.** 4.38 mM (≈ 600 µg/mL)

**Q.** For `Cc1ccc2cc3c(ccc4ccccc43)c3c2c1CC3`, which solubility is on record?
**A.** 1.08e-05 mM (≈ 0.0029 µg/mL)

**Q.** With `Cc1cccc(Oc2ccc([N+](=O)[O-])cc2)c1` as the compound, how does the solubility read?
**A.** 0.0218 mM (≈ 5 µg/mL)

**Q.** With `CCCCN(CCO)CCCC` as the compound, how does the solubility read?
**A.** 23.1 mM (≈ 4000 µg/mL)

**Q.** Which solubility does the source give for `CCCCCCCCOP(=O)(Oc1ccccc1)Oc1ccccc1` here?
**A.** 0.000386 mM (≈ 0.14 µg/mL)

**Q.** For `COC`, which solubility is on record?
**A.** 7660 mM (≈ 353000 µg/mL)

**Q.** Which solubility does the source give for `O=C(O)c1cccc(C(=O)O)n1` here?
**A.** 29.9 mM (≈ 5000 µg/mL)

**Q.** Which solubility does the source give for `CC(CCc1ccccc1)NCC(O)c1ccc(O)c(C(N)=O)c1` (configuration not stated) here?
**A.** 0.356 mM (≈ 117 µg/mL)

**Q.** With `C[Si](C)(C)O[Si](C)(C)O[Si](C)(C)O[Si](C)(C)C` as the compound, how does the solubility read?
**A.** 2.17e-05 mM (≈ 0.00674 µg/mL)

**Q.** For `O=P(Oc1ccccc1)(Oc1ccccc1)Oc1ccccc1`, which solubility is on record?
**A.** 0.00582 mM (≈ 1.9 µg/mL)

**Q.** Which solubility does the source give for `Brc1cc(Br)c(OCCOc2c(Br)cc(Br)cc2Br)c(Br)c1` here?
**A.** 0.000291 mM (≈ 0.2 µg/mL)

**Q.** With `CCCCOC(=O)c1ccccc1C(=O)OCc1ccccc1` as the compound, how does the solubility read?
**A.** 0.00861 mM (≈ 2.69 µg/mL)

**Q.** For `O=C(O)C1CCCCC1`, which solubility is on record?
**A.** 35.9 mM (≈ 4600 µg/mL)

**Q.** With `CCC(CO)(CO)COCC(CC)(CO)CO` as the compound, how does the solubility read?
**A.** 104 mM (≈ 26000 µg/mL)

**Q.** Which solubility does the source give for `Nc1ncc2ncn(COCCO)c2n1` here?
**A.** 83.7 mM (≈ 17500 µg/mL)

**Q.** Which solubility does the source give for `O=C(O)c1ccc(C(=O)O)c(C(=O)O)c1` here?
**A.** 99.9 mM (≈ 21000 µg/mL)

**Q.** With `CCCCCCCCCCCCCC` as the compound, how does the solubility read?
**A.** 1.97e-05 mM (≈ 0.00391 µg/mL)

**Q.** Which solubility does the source give for `Cc1ccccc1C(C)C` here?
**A.** 0.174 mM (≈ 23.3 µg/mL)

**Q.** Which solubility does the source give for `CCOC(C)=O` here?
**A.** 908 mM (≈ 80000 µg/mL)

**Q.** For `C=CCCCCCCCC`, which solubility is on record?
**A.** 0.00406 mM (≈ 0.57 µg/mL)

**Q.** For `C=C(C)C(=O)OCCCC`, which solubility is on record?
**A.** 5.63 mM (≈ 800 µg/mL)

same assay, conditions: 25.0 °C

**Q.** For `FC(F)C(F)(F)C(F)(F)C(F)F`, which log10 OH rate constant (cm³/molecule/s) is on record?
**A.** -14.3

**Q.** For `c1ccc2c(c1)oc1ccccc12`, which log10 OH rate constant (cm³/molecule/s) is on record?
**A.** -11.4

**Q.** For `CCCCOCC=O`, which log10 OH rate constant (cm³/molecule/s) is on record?
**A.** -10.7

**Q.** With `CCCCl` as the compound, how does the log10 OH rate constant (cm³/molecule/s) read?
**A.** -12

**Q.** For `FC(F)CC(F)(F)F`, which log10 OH rate constant (cm³/molecule/s) is on record?
**A.** -14.1

**Q.** With `Oc1cccc2ccccc12` as the compound, how does the log10 OH rate constant (cm³/molecule/s) read?
**A.** -9.26

same assay, conditions: 30 °C

**Q.** With `BrC(Br)(Br)Br` as the compound, how does the solubility read?
**A.** 0.724 mM (≈ 240 µg/mL)
